Experimental data taken from PubChem BioAssay AID2060603 (Molecular Pharmacology Branch, DTP, NCI, 2025).

Test system: 422866-222-R5-J1-PDC spheroid viability
Assay: Anticancer human tumor 422866-222-R5-J1-PDC patient-derived pancreatic adenocarcinoma cell line growth inhibition [CLK]
Conditions: spheroids with HUVEC and MSC; for IC50: curve of first compound; for viability, T/C: stronger effect = lower value
In short: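 Multi-cell-type spheroids combined patient-derived tumor cells with HUVEC endothelial cells and human mesenchymal stem cells. Paired agents were dosed in half-log steps down from about clinical Cmax, or from 10 microM where Cmax was unknown.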
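Further: spheroids exposed to agents for seven days before readout.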

CC(CO)NC(=O)c1cc(-c2ccc(Cl)cc2)nn(-c2cnn(C)c2)c1=O (configuration not stated) + CNC(=O)c1ccc(Nc2nc(OC3CCCC3)c3c(-c4ccc5nc(C)oc5c4)c[nH]c3n2)c(OC)c1
IC50 (second compound 0.0316 µM): > 10 µM | IC50 (second compound 0.1 µM): > 10 µM | IC50 (second compound 0.316 µM): > 10 µM | IC50 (second compound 1 µM): > 10 µM | IC50 (second compound 3.16 µM): > 10 µM | IC50 (second compound 10 µM): > 10 µM | viability, T/C (second compound 0.0316 µM, first compound 0.0316 µM): 91% | viability, T/C (second compound 0.0316 µM, first compound 0.1 µM): 112% | viability, T/C (second compound 0.0316 µM, first compound 0.316 µM): 112% | viability, T/C (second compound 0.0316 µM, first compound 1 µM): 114% | viability, T/C (second compound 0.0316 µM, first compound 3.16 µM): 77.2% | viability, T/C (second compound 0.0316 µM, first compound 10 µM): 81.7% | viability, T/C (second compound 0.1 µM, first compound 0.0316 µM): 113% | viability, T/C (second compound 0.1 µM, first compound 0.1 µM): 97.3% | viability, T/C (second compound 0.1 µM, first compound 0.316 µM): 109% | viability, T/C (second compound 0.1 µM, first compound 1 µM): 98.9% | viability, T/C (second compound 0.1 µM, first compound 3.16 µM): 74.9% | viability, T/C (second compound 0.1 µM, first compound 10 µM): 78.1% | viability, T/C (second compound 0.316 µM, first compound 0.0316 µM): 73.2% | viability, T/C (second compound 0.316 µM, first compound 0.1 µM): 73.8% | viability, T/C (second compound 0.316 µM, first compound 0.316 µM): 72.6% | viability, T/C (second compound 0.316 µM, first compound 1 µM): 73.5% | viability, T/C (second compound 0.316 µM, first compound 3.16 µM): 72.2% | viability, T/C (second compound 0.316 µM, first compound 10 µM): 66.8% | viability, T/C (second compound 1 µM, first compound 0.0316 µM): 74.8% | viability, T/C (second compound 1 µM, first compound 0.1 µM): 64.2% | viability, T/C (second compound 1 µM, first compound 0.316 µM): 66.2% | viability, T/C (second compound 1 µM, first compound 1 µM): 55.1% | viability, T/C (second compound 1 µM, first compound 3.16 µM): 57.5% | viability, T/C (second compound 1 µM, first compound 10 µM): 61.8% | viability, T/C (second compound 3.16 µM, first compound 0.0316 µM): 56.3% | viability, T/C (second compound 3.16 µM, first compound 0.1 µM): 60.8% | viability, T/C (second compound 3.16 µM, first compound 0.316 µM): 57.2% | viability, T/C (second compound 3.16 µM, first compound 1 µM): 61.8% | viability, T/C (second compound 3.16 µM, first compound 3.16 µM): 51.5% | viability, T/C (second compound 3.16 µM, first compound 10 µM): 50.2% | viability, T/C (second compound 10 µM, first compound 0.0316 µM): 55.6% | viability, T/C (second compound 10 µM, first compound 0.1 µM): 63.4% | viability, T/C (second compound 10 µM, first compound 0.316 µM): 67% | viability, T/C (second compound 10 µM, first compound 1 µM): 60.4% | viability, T/C (second compound 10 µM, first compound 3.16 µM): 60.9% | viability, T/C (second compound 10 µM, first compound 10 µM): 56.4%
